From publication PMC7753147, “High-throughput determination of protein affinities using unmodified peptide libraries in nanomolar scale” (iScience, 2020)

Assays:
[1] = tested on: FL-geph; assay: µSPOT peptide microarray binding assay with full-length geph; settings: µSPOT peptide microarray, GlyRβ full positional scan, intensity normalised to wild-type sequence DLRSNDFSIVGSLPR (=1)
[2] = tested on: gephE; assay: µSPOT peptide microarray binding assay with recombinant gephE; settings: µSPOT peptide microarray, GlyRβ full positional scan, recombinant gephE; intensity normalised to wild-type sequence DLRSNDFSIVGSLPR (=1)
[3] = tested on: native geph; assay: µSPOT peptide microarray binding assay with native geph from mouse brain lysate; settings: µSPOT peptide microarray, GlyRβ full positional scan, native geph from mouse brain lysate; intensity normalised to wild-type sequence DLRSNDFSIVGSLPR (=1)

Fl-geph Binding Intensity [norm.] [1] | gephE Binding Intensity [norm.] [2] | Native geph Binding Intensity [norm.] [3] | Sequence
1.01 norm. | 0.96 norm. | 0.97 norm. | DLRSQDFSIVGSLPR [GlyRβ_Full_Positional_Scan_100]
0.77 norm. | 0.89 norm. | 0.62 norm. | DLRSRDFSIVGSLPR [GlyRβ_Full_Positional_Scan_092]
0.95 norm. | 0.99 norm. | 0.85 norm. | DLRSSDFSIVGSLPR [GlyRβ_Full_Positional_Scan_095]
0.78 norm. | 1.06 norm. | 0.73 norm. | DLRSTDFSIVGSLPR [GlyRβ_Full_Positional_Scan_096]
0.83 norm. | 0.84 norm. | 0.72 norm. | DLRSVDFSIVGSLPR [GlyRβ_Full_Positional_Scan_086]
0.66 norm. | 0.86 norm. | 0.47 norm. | DLRSWDFSIVGSLPR [GlyRβ_Full_Positional_Scan_088]
0.76 norm. | 0.89 norm. | 0.68 norm. | DLRSYDFSIVGSLPR [GlyRβ_Full_Positional_Scan_089]
1.09 norm. | 0.93 norm. | 1.12 norm. | DLRTNDFSIVGSLPR [GlyRβ_Full_Positional_Scan_076]
0.9 norm. | 0.91 norm. | 0.98 norm. | DLRVNDFSIVGSLPR [GlyRβ_Full_Positional_Scan_066]
0.81 norm. | 0.92 norm. | 0.95 norm. | DLRWNDFSIVGSLPR [GlyRβ_Full_Positional_Scan_068]
0.83 norm. | 0.96 norm. | 0.93 norm. | DLRYNDFSIVGSLPR [GlyRβ_Full_Positional_Scan_069]
1.4 norm. | 0.87 norm. | 1.35 norm. | DLSSNDFSIVGSLPR [GlyRβ_Full_Positional_Scan_055]
1.18 norm. | 0.96 norm. | 1.38 norm. | DLTSNDFSIVGSLPR [GlyRβ_Full_Positional_Scan_056]
1.27 norm. | 0.94 norm. | 1.47 norm. | DLVSNDFSIVGSLPR [GlyRβ_Full_Positional_Scan_046]
1.13 norm. | 0.86 norm. | 1.17 norm. | DLWSNDFSIVGSLPR [GlyRβ_Full_Positional_Scan_048]
1.03 norm. | 0.96 norm. | 1.37 norm. | DLYSNDFSIVGSLPR [GlyRβ_Full_Positional_Scan_049]
0.97 norm. | 0.97 norm. | 1.09 norm. | DMRSNDFSIVGSLPR [GlyRβ_Full_Positional_Scan_038]
0.98 norm. | 0.96 norm. | 1.18 norm. | DNRSNDFSIVGSLPR [GlyRβ_Full_Positional_Scan_039]
1.01 norm. | 1.01 norm. | 1.02 norm. | DPRSNDFSIVGSLPR [GlyRβ_Full_Positional_Scan_025]
0.92 norm. | 0.96 norm. | 1.16 norm. | DQRSNDFSIVGSLPR [GlyRβ_Full_Positional_Scan_040]
0.96 norm. | 0.9 norm. | 0.66 norm. | DRRSNDFSIVGSLPR [GlyRβ_Full_Positional_Scan_032]
0.97 norm. | 0.97 norm. | 0.97 norm. | DSRSNDFSIVGSLPR [GlyRβ_Full_Positional_Scan_035]

Fl-geph Binding Intensity [norm.] [1] | gephE Binding Intensity [norm.] [2] | Native geph Binding Intensity [norm.] [3] | Sequence
0.97 norm. | 0.94 norm. | 1.09 norm. | DTRSNDFSIVGSLPR [GlyRβ_Full_Positional_Scan_036]
1.05 norm. | 1.03 norm. | 0.98 norm. | DVRSNDFSIVGSLPR [GlyRβ_Full_Positional_Scan_026]
0.82 norm. | 0.8 norm. | 0.6 norm. | DWRSNDFSIVGSLPR [GlyRβ_Full_Positional_Scan_028]
0.84 norm. | 0.95 norm. | 0.73 norm. | DYRSNDFSIVGSLPR [GlyRβ_Full_Positional_Scan_029]
0.94 norm. | 1.1 norm. | 0.97 norm. | ELRSNDFSIVGSLPR [GlyRβ_Full_Positional_Scan_011]
1.03 norm. | 0.96 norm. | 0.77 norm. | FLRSNDFSIVGSLPR [GlyRβ_Full_Positional_Scan_007]
1.03 norm. | 1.01 norm. | 0.75 norm. | GLRSNDFSIVGSLPR [GlyRβ_Full_Positional_Scan_002]
1 norm. | 1.1 norm. | 0.83 norm. | HLRSNDFSIVGSLPR [GlyRβ_Full_Positional_Scan_013]
1.09 norm. | 1.15 norm. | 0.86 norm. | ILRSNDFSIVGSLPR [GlyRβ_Full_Positional_Scan_003]
0.94 norm. | 1.03 norm. | 0.32 norm. | KLRSNDFSIVGSLPR [GlyRβ_Full_Positional_Scan_014]
1.1 norm. | 1.18 norm. | 0.66 norm. | LLRSNDFSIVGSLPR [GlyRβ_Full_Positional_Scan_004]
1.04 norm. | 1.13 norm. | 1.2 norm. | MLRSNDFSIVGSLPR [GlyRβ_Full_Positional_Scan_018]
1 norm. | 1.15 norm. | 1.28 norm. | NLRSNDFSIVGSLPR [GlyRβ_Full_Positional_Scan_019]
1.16 norm. | 1.1 norm. | 0.72 norm. | PLRSNDFSIVGSLPR [GlyRβ_Full_Positional_Scan_005]
1.16 norm. | 1.19 norm. | 1.2 norm. | QLRSNDFSIVGSLPR [GlyRβ_Full_Positional_Scan_020]
0.99 norm. | 0.98 norm. | 0.46 norm. | RLRSNDFSIVGSLPR [GlyRβ_Full_Positional_Scan_012]
0.91 norm. | 1.04 norm. | 0.69 norm. | SLRSNDFSIVGSLPR [GlyRβ_Full_Positional_Scan_015]
0.85 norm. | 1.16 norm. | 0.79 norm. | TLRSNDFSIVGSLPR [GlyRβ_Full_Positional_Scan_016]
1.18 norm. | 1.05 norm. | 0.8 norm. | VLRSNDFSIVGSLPR [GlyRβ_Full_Positional_Scan_006]
0.86 norm. | 0.91 norm. | 0.67 norm. | WLRSNDFSIVGSLPR [GlyRβ_Full_Positional_Scan_008]
1 norm. | 1.05 norm. | 0.74 norm. | YLRSNDFSIVGSLPR [GlyRβ_Full_Positional_Scan_009]
